In PMC9415509, “Pro-Apoptotic Antitumoral Effect of Novel Acridine-Core Naphthoquinone Compounds against Oral Squamous Cell Carcinoma” (Molecules, 2022):
pIC50: −log10 of the molar value. Values joined by “and” are separate entries in the source; they are usually repeats but may differ in a detail not shown here. Equal values may be shown once.

Tested on: OSCC cells (SCC-4, SCC-9, SCC-25)
Experiment: MTT cytotoxicity and selectivity, mean over OSCC cell lines
Format: cell-based, human
Experimental: Cell viability assay (cytotoxicity) and compound stability assay. The viability of SCC cell lines and primary human fibroblast cells was evaluated using the MTT assay as in [48]. Briefly, the cells were grown in triplicates in 96-well plates (5 × 10^3 cells/well) until confluence. Then, the medium was removed, fresh medium was added, and the cells were returned to the incubator in the presence of different compounds. DMSO at the same concentrations was used as a 100% cell viability control. After 48 h, the cells were incubated with 5 mg/mL MTT reagent (3-(4,5-dimethyl-2-thiazolyl)-2,5-diphenyl-2-H-tetrazolium bromide) (Sigma-Aldrich Co., St. Louis, MO, USA) for 3.5 h. After that, formazan crystals were dissolved in MTT solvent solution (DMSO/methanol 1:1 v/v) and the absorbance at 560 nm was evaluated using an EPOCH microplate spectrophotometer (BioTek Instruments, Winooski, VT, USA) with the background absorbance at 670 nm subtracted.
Statistical analysis, IC50 calculation. The data are presented as means ±\SD. IC50 values for the MTT assays were obtained by nonlinear regression using the […] […] The selectivity index was calculated as SI = IC50 of the compound in normal oral fibroblast cells/IC50 of the same compound for each oral cancer cell line (SCC-4, SCC-9, and SCC-25) and the mean was calculated when indicated.

CC1(C)CC(=O)C2=C(C1)NC1=C(C(=O)c3ccccc3C1=O)C2c1ccc(Cl)cc1Cl (centres unmarked) [4e, 12-(2,4-dichlorophenyl)-3,3-dimethyl-3,4-dihydrobenzo[b]acridine-1,6,11(2H,5H,12H)-trione]
pIC50 (Homo sapiens, mean of SCC4, SCC9, SCC25): 4.52
SI (mean selectivity index) (mean over OSCC cell lines vs normal fibroblasts): 2.9 and 2.93
